# Data taken from PubChem BioAssay AID192 (DTP/NCI, 2004).
# “And” between values parts separate entries of the source, which are not always exact repeats. Identical values can stand only once. Inconclusive results and toxic doses are left out.
# System: BDF1 mice, B16 melanoma ip, median survival T/C
# Assay: NCI In Vivo Anticancer Drug Screen. Data for tumor model B16 Melanoma (intraperitoneal) in B6D2F1 (BDF1) mice
# Conditions: endpoint: median survival time, higher = longer survival
# How it was run: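 Values are ratios of treated (T) to vehicle-control (C) measurements of survival or tumor size in tumor-bearing mice.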
# [1] = dose: 25.0 mg/kg/injection, schedule: Q01DX009 (ip), vehicle: Klucel (hydroxypropylcellulose) (HPC)
# [2] = dose: 50.0 mg/kg/injection, schedule: Q01DX009 (ip), vehicle: Klucel (hydroxypropylcellulose) (HPC)
# [3] = dose: 100.0 mg/kg/injection, schedule: Q01DX009 (ip), vehicle: Klucel (hydroxypropylcellulose) (HPC)
# [4] = dose: 100.0 mg/kg/injection, schedule: Q01DX009 (ip), vehicle: saline with Tween-80
# [5] = dose: 200.0 mg/kg/injection, schedule: Q01DX009 (ip), vehicle: saline with Tween-80
# [6] = dose: 400.0 mg/kg/injection, schedule: Q01DX009 (ip), vehicle: saline with Tween-80
# [7] = dose: 1.56 mg/kg/injection, schedule: Q01DX009 (ip), vehicle: Klucel (hydroxypropylcellulose) (HPC)
# [8] = dose: 3.12 mg/kg/injection, schedule: Q01DX009 (ip), vehicle: Klucel (hydroxypropylcellulose) (HPC)
# [9] = dose: 50.0 mg/kg/injection, schedule: Q04DX003 (ip), vehicle: Klucel (hydroxypropylcellulose) (HPC)
# [10] = dose: 100.0 mg/kg/injection, schedule: Q04DX003 (ip), vehicle: Klucel (hydroxypropylcellulose) (HPC)
# [11] = dose: 12.5 mg/kg/injection, schedule: Q01DX009 (ip), vehicle: saline with Tween-80
# [12] = dose: 50.0 mg/kg/injection, schedule: Q01DX009 (ip), vehicle: saline with Tween-80
# [13] = dose: 200.0 mg/kg/injection, schedule: Q01DX009 (ip), vehicle: Klucel (hydroxypropylcellulose) (HPC)
# [14] = dose: 6.25 mg/kg/injection, schedule: Q01DX009 (ip), vehicle: Klucel (hydroxypropylcellulose) (HPC)
# [15] = dose: 12.5 mg/kg/injection, schedule: Q01DX009 (ip), vehicle: Klucel (hydroxypropylcellulose) (HPC)
# [16] = dose: 100.0 mg/kg/injection, schedule: Q04DX003 (ip), vehicle: saline
# [17] = dose: 200.0 mg/kg/injection, schedule: Q04DX003 (ip), vehicle: saline
# [18] = dose: 400.0 mg/kg/injection, schedule: Q04DX003 (ip), vehicle: saline
structure (smiles),measurement,setting,value
O=C(c1ccccc1Cl)N(Cc1ccccc1)c1ccccc1,T/C,[1],93 % of control
same,T/C,[2],93 % of control
same,T/C,[3],90 % of control and 100 % of control
[N-]=[N+]=CC(=O)NCC(=O)NN,T/C,"dose: 50.0 mg/kg/injection, schedule: Q01DX009 (ip), vehicle: other",111 % of control
same,T/C,"dose: 50.0 mg/kg/injection, schedule: Q01DX009 (ip), vehicle: saline",110 % of control
same,T/C,"dose: 100.0 mg/kg/injection, schedule: Q01DX009 (ip), vehicle: other",106 % of control
same,T/C,"dose: 100.0 mg/kg/injection, schedule: Q01DX009 (ip), vehicle: saline",113 % of control
same,T/C,"dose: 200.0 mg/kg/injection, schedule: Q01DX009 (ip), vehicle: other",120 % of control
same,T/C,"dose: 200.0 mg/kg/injection, schedule: Q01DX009 (ip), vehicle: saline",123 % of control
same,T/C,"dose: 300.0 mg/kg/injection, schedule: Q01DX009 (ip), vehicle: other",166 % of control
same,T/C,"dose: 400.0 mg/kg/injection, schedule: Q01DX009 (ip), vehicle: saline",150 % of control
same,T/C,"dose: 500.0 mg/kg/injection, schedule: Q01DX009 (ip), vehicle: other",86 % of control
same,T/C,"dose: 600.0 mg/kg/injection, schedule: Q02DX005 (ip), vehicle: other",156 % of control
O=C(Nc1ccc(C(=O)Nc2cc(S(=O)(=O)O)cc3cc(S(=O)(=O)O)cc(O)c23)cc1)c1ccccc1,T/C,[4],94 % of control
same,T/C,[5],89 % of control
same,T/C,[6],89 % of control
Cc1c([C@H](C)[C@@H]2NC[C@@H](C)C[C@H]2O)ccc2c1C[C@H]1[C@H]2CC=C2C[C@@H](O)CC[C@@]21C,T/C,"dose: 1.5 mg/kg/injection, schedule: Q01DX009 (ip), vehicle: saline",97 % of control
same,T/C,"dose: 3.0 mg/kg/injection, schedule: Q01DX009 (ip), vehicle: saline",104 % of control
COC(=O)C1C2CC3c4[nH]c5cc(OC)ccc5c4CCN3CC2CC(OC2CCCCO2)C1OC (stereo unspecified),T/C,"dose: 0.19 mg/kg/injection, schedule: Q01DX009 (ip), vehicle: Klucel (hydroxypropylcellulose) (HPC)",112 % of control
same,T/C,"dose: 0.39 mg/kg/injection, schedule: Q01DX009 (ip), vehicle: Klucel (hydroxypropylcellulose) (HPC)",104 % of control
same,T/C,"dose: 0.78 mg/kg/injection, schedule: Q01DX009 (ip), vehicle: Klucel (hydroxypropylcellulose) (HPC)",103 % of control
same,T/C,"dose: 0.78 mg/kg/injection, schedule: Q04DX003 (ip), vehicle: Klucel (hydroxypropylcellulose) (HPC)",91 % of control
same,T/C,[7],101 % of control
same,T/C,"dose: 1.56 mg/kg/injection, schedule: Q04DX003 (ip), vehicle: Klucel (hydroxypropylcellulose) (HPC)",90 % of control
same,T/C,[8],111 % of control
same,T/C,"dose: 3.12 mg/kg/injection, schedule: Q04DX003 (ip), vehicle: Klucel (hydroxypropylcellulose) (HPC)",96 % of control and 122 % of control
same,T/C,"dose: 6.25 mg/kg/injection, schedule: Q04DX003 (ip), vehicle: Klucel (hydroxypropylcellulose) (HPC)",98 % of control
same,T/C,"dose: 12.5 mg/kg/injection, schedule: Q04DX003 (ip), vehicle: Klucel (hydroxypropylcellulose) (HPC)",95 % of control and 111 % of control
same,T/C,"dose: 25.0 mg/kg/injection, schedule: Q04DX003 (ip), vehicle: Klucel (hydroxypropylcellulose) (HPC)",113 % of control
same,T/C,[9],111 % of control
same,T/C,[10],100 % of control
COc1ccc(C(=S)N2CCN(c3ccccc3)CC2)cc1,T/C,[11],87 % of control
same,T/C,[12],99 % of control
same,T/C,[5],87 % of control
O=C(O)C1CCCCC1C(=O)Nc1ccc(Cl)cc1 (stereo unspecified),T/C,[2],114 % of control
same,T/C,[3],105 % of control
same,T/C,[13],107 % of control
CN(C)c1ccc2c(N(C)C)cc(N(C)C)nc2c1,T/C,[8],99 % of control
same,T/C,[14],107 % of control
same,T/C,[15],97 % of control
same,T/C,[1],108 % of control
same,T/C,[2],102 % of control
O=C(Nc1cccc2ccccc12)Oc1ccccc1Cc1ccccc1,T/C,[16],100 % of control
same,T/C,[17],106 % of control
same,T/C,[18],106 % of control
CSc1nc(Cl)c(Br)c(Cl)n1,T/C,"dose: 1.56 mg/kg/injection, schedule: Q01DX009 (ip), vehicle: saline with Tween-80",110 % of control
same,T/C,"dose: 3.13 mg/kg/injection, schedule: Q01DX009 (ip), vehicle: saline with Tween-80",112 % of control
same,T/C,"dose: 6.25 mg/kg/injection, schedule: Q01DX009 (ip), vehicle: saline with Tween-80",102 % of control
same,T/C,[11],108 % of control
CN1C2CCC1CNC2,T/C,[16],105 % of control
same,T/C,[17],105 % of control
same,T/C,[18],100 % of control
NCCCC(N)(C(=O)O)C(F)F (stereo unspecified),T/C,"dose: 50.0 mg/kg/injection, schedule: Q01DX009 (ip), vehicle: distilled water + alcohol",94 % of control
same,T/C,"dose: 100.0 mg/kg/injection, schedule: Q01DX009 (ip), vehicle: distilled water + alcohol",101 % of control
same,T/C,"dose: 200.0 mg/kg/injection, schedule: Q01DX009 (ip), vehicle: distilled water + alcohol",97 % of control
same,T/C,"dose: 400.0 mg/kg/injection, schedule: Q01DX009 (ip), vehicle: distilled water + alcohol",100 % of control
same,T/C,"dose: 800.0 mg/kg/injection, schedule: Q01DX009 (ip), vehicle: distilled water + alcohol",110 % of control
CC(=O)CCN1C(=O)c2ccccc2C1=O,T/C,[15],96 % of control
same,T/C,[1],103 % of control
same,T/C,[2],95 % of control (2×) and 101 % of control
same,T/C,[3],99 % of control and 102 % of control
same,T/C,[13],94 % of control and 98 % of control and 112 % of control
Clc1cc(CBr)c(Cl)c(Cl)c1CBr,T/C,[7],94 % of control
same,T/C,[8],88 % of control
same,T/C,[14],94 % of control
same,T/C,[15],92 % of control
O=C(OCCCCCCl)c1ccccc1,T/C,[4],117 % of control
same,T/C,[5],104 % of control
same,T/C,[6],106 % of control
C[As](C)[Se]C1OC(CO)C(O)C(O)C1O (stereo unspecified),T/C,[15],112 % of control
same,T/C,[1],106 % of control
same,T/C,[2],104 % of control
CC(=O)CC(=O)Nc1ccc2ccccc2c1,T/C,[1],93 % of control
same,T/C,[2],90 % of control
same,T/C,[3],93 % of control
O.O.O=c1[nH]cc(CO)c(=O)[nH]1.[NH2-].[NH2-].[Pt+2],T/C,[8],107 % of control
same,T/C,[14],106 % of control
same,T/C,[1],185 % of control
O=S(=O)(CCCl)c1ccc2ccccc2c1,T/C,[14],100 % of control
same,T/C,[15],104 % of control
same,T/C,[1],106 % of control
same,T/C,[2],104 % of control
CC/C=C/c1cccc(OC)c1,T/C,[3],96 % of control
same,T/C,[13],96 % of control
same,T/C,"dose: 400.0 mg/kg/injection, schedule: Q01DX009 (ip), vehicle: Klucel (hydroxypropylcellulose) (HPC)",92 % of control
Cc1nonc1-c1ccc2c(c1)OCO2,T/C,[1],98 % of control
same,T/C,[2],93 % of control
same,T/C,[3],91 % of control
same,T/C,[13],99 % of control
O=NN(CCF)C(=O)NCCO,T/C,"dose: 1.88 mg/kg/injection, schedule: Q01DX001 (ip), vehicle: saline",115 % of control
same,T/C,"dose: 3.75 mg/kg/injection, schedule: Q01DX001 (ip), vehicle: saline",114 % of control
same,T/C,"dose: 15.0 mg/kg/injection, schedule: Q01DX001 (ip), vehicle: saline",172 % of control
same,T/C,"dose: 30.0 mg/kg/injection, schedule: Q01DX001 (ip), vehicle: saline",231 % of control
same,T/C,"dose: 60.0 mg/kg/injection, schedule: Q01DX001 (ip), vehicle: saline",212 % of control
Cc1c(Cl)cccc1NC(=O)c1ccc([N+](=O)[O-])cc1,T/C,[4],105 % of control
same,T/C,[5],100 % of control
C=CC(C(=O)OCC)C(O)CCC (stereo unspecified),T/C,[2],121 % of control
same,T/C,[3],100 % of control
same,T/C,[13],101 % of control
OCc1ccccc1,T/C,[4],94 % of control
same,T/C,[5],100 % of control
same,T/C,[6],108 % of control
COc1ccc(NC(=O)Nc2cc(C(F)(F)F)ccc2Cl)cc1,T/C,"dose: 8.0 mg/kg/injection, schedule: Q01DX009 (ip), vehicle: saline with Tween-80",100 % of control
same,T/C,"dose: 12.0 mg/kg/injection, schedule: Q01DX009 (ip), vehicle: saline with Tween-80",100 % of control
same,T/C,[11],215 % of control
same,T/C,"dose: 18.0 mg/kg/injection, schedule: Q01DX009 (ip), vehicle: saline with Tween-80",104 % of control
same,T/C,"dose: 25.0 mg/kg/injection, schedule: Q01DX009 (ip), vehicle: saline with Tween-80",194 % of control
same,T/C,[12],218 % of control
Nc1nc(-c2ccccc2N=NN2CCCCC2)nc2ccccc12,T/C,[9],97 % of control
same,T/C,[10],91 % of control
same,T/C,"dose: 200.0 mg/kg/injection, schedule: Q04DX003 (ip), vehicle: Klucel (hydroxypropylcellulose) (HPC)",113 % of control
